The subject of one series is iNOS. The experiment in a line: iNOS inhibition assay (LPS-induced NO production, Griess reaction). The format is cell-based, murine. The following applies: Mus musculus; RAW264.7 cells, 0–1000 nM rexinoids, LPS 1 ng/ml 24 h, NO by Griess assay; mean ± SE of 3 experiments; read-out: iNOS suppression IC50. How it is done:
To evaluate the anti-inflammatory effects of the novel rexinoids, we utilized the iNOS suppression assay. Inhibition of iNOS in vitro directly correlates with efficacy in our preclinical model of Kras-driven lung cancer. RAW264.7 macrophage-like cells were treated with 0–1 μM rexinoids and stimulated with 1 ng/mL lipopolysaccharide for 24 h, and then NO was measured in the media.
RAW264.7 cells were plated in 96-well plates (20,000 cells/well). After overnight attachment, cells were treated with twofold serial dilutions (0–1000 nM) of rexinoids. After a 20 min incubation at 37 °C, cells were stimulated with 1 ng/mL LPS for 24 h. NO production was measured in culture medium using the Griess reaction. IC50 values were calculated using GraphPad Prism 8.1.2 software for Windows using a log([nM drug concentration]) vs. response curve fit.

Another series concerns SREBP. Put plainly: SREBP mRNA expression assay in HepG2 cells (RT-PCR). The format is cell-based, human. The following applies: Homo sapiens, HepG2, 8 h, HepG2 cells, 300 nM rexinoids, 8 h, SREBP mRNA by RT-PCR; mean ± SD of 3 experiments; read-out: SREBP activation Fold induction vs. Control. As for the experimental part: The goals of our structure–activity relationship (SAR) studies were to explore and discover new scaffolds that not only bind to RXR but also are able to independently modulate both iNOS and SREBP activity in accordance with a previously described screening paradigm. To characterize the effect of the novel rexinoids on SREBP elevation in vitro, HepG2 cells were treated with 300 nM rexinoids for 8 h and SREBP mRNA levels were measured by RT-PCR. SREBP expression ranged from no change to a 4.6-fold induction compared to the vehicle control when treated with the novel compounds. […] Analogs MSU- 41402, 41582, 41407, 41566, 41844, 41845, 42011, and 42166 induced an SREPB mRNA fold expression change of 1–1.5 normalized to a vehicle control, while bexarotene induced an mRNA fold expression change of > 2 (Table 1).
HepG2 were plated in 6-well plates (1 × 10^6 cells/well) and, after allowing the cells to attach overnight, were treated with 300 nM rexinoids and/or varying concentrations of T0901317 (TOCRIS # 2373), GSK 2033 (TOCRIS # 5694), HX 531 (TOCRIS # 3912) for 8 h. Total RNA was isolated with TRIzol (Invitrogen, Carlsbad, CA) and 2 µg RNA was used to synthesize cDNA using the SuperScript III reverse transcriptase kit (Invitrogen, Carlsbad, CA). Primers (IDT) for SREBP (F: 5′-GCCGGTTGATAGGCAGCTT-3′; R: 5′-GGTGAGTGGCGGAACCATT-3′) and GAPDH (F: 5′-[…]-3′; R: 5′-[…]-3′), the SYBR Green Supermix (Bio-rad Laboratories, Hercules, CA) and the QuantStudio 7 Flex Real-Time PCR system (95 °C for 20 s followed by 40 cycles of 95 °C for 15 s and 60 °C for 1 min were used to detect mRNA expression. Relative SREBP/GAPDH gene expression was calculated by the delta-delta Ct method. To evaluate protein expression by western blotting, HepG2 cells were plated as above and treated with 300 nM of rexinoids for 24 h. Cells were harvested and lysed in RIPA buffer (1 M Tris–Cl, 5 M NaCl, pH 7.4, 0.5 M EDTA, 25 mM sodium deoxycholate, 1% triton-X, 0.1% SDS, 0.0125% aprotinin) with protease inhibitors (1% PMSF/0.5% apoprotein/0.1%leupeptin). Protein concentration was measured using a BCA assay (Sigma-Aldrich). Proteins (10 µg/well) were separated in 10% SDS-PAGE gels and transferred to nitrocellulose membranes. Membranes were incubated with SREBP (Active Motif; 1:1000) and GAPDH (Santa Cruz Biotechnology; 1:8000) primary antibodies followed by anti-rabbit secondary antibodies conjugated to horseradish peroxidase (Cell Signaling). Signal was detected using the ECL Western Blotting Substrate (GE Healthcare), and protein levels quantified using ImageJ.

Series [1] in a line: Steady state drug levels in plasma after 12 weeks on diet (HPLC-MS). The format is in vivo, A/J mice. To be noted: A/J, mouse, oral, 100 mg/kg diet for 12 weeks, LC-MS, n = 8, mean ± SE. How it is done: Blood was collected via cardiac puncture into 1 ml lithium heparin tubes (Greiner Bio-one). Blood was centrifuged at 5000 g for 5 min at 4 °C. Plasma was separated and frozen at − 80 °C until processed as described. Acetonitrile was added to precipitate plasma proteins. Samples were centrifuged at 14,000 g for 5 min, and the supernatant was filtered with a 0.2 µm syringe filter. Each sample was dried overnight and reconstituted in 200 µl of 50:50 methanol:water solution for analysis via HPLC. HPLC was performed on a Quatro Premier instrument with an Ascentis Express C18 column and an Acquity UPLC system. The mobile phase A consisted of 10 mM aq. ammonium acetate and the mobile phase B consisted of methanol. The following gradient was applied 99–5% A (0–4 min), 5% A (4–5.1 min), 5–99% A (5.1–6 min). The flow rate was 0.3 ml/minute, and bexarotene and MSU-42011 were detected at ~ 4.5 min. A standard curve was prepared by processing plasma from untreated animals and spiking the samples with 0.1–3 μM of the appropriate rexinoid then reconstituting the samples.

Series [2] can be described thus: Lipid levels in plasma (triglyceride and cholesterol kits). It is filed as in vivo, A/J mice. To be noted: 100 mg/kg diet for 12 weeks, n = 8, mean ± SE. How it is done: Triglyceride and cholesterol levels in plasma (n = 8 mice/group) harvested at necropsy were measured using the Triglyceride Quantification Assay Kit (Abcam) or the Cholesterol Quantification Kit (Sigma-Aldrich), respectively, using the recommended protocol supplied by the manufacturer.

The test system of the next series is A549 lung cancer cells. Put plainly: MTT proliferation assay. It is filed as cell-based, human. The following applies: 0–1 μM rexinoids, 72 hr. How it is done: were treated with 0-1 μM rexinoids for 72 hr. Proliferation was measured using the MTT assay.
MTT Assay. A549 cells were plated in 96-well plates (2,000 cells/well). After overnight attachment, cells were treated with 2 fold dilutions (0-1000 nM rexinoids) for 72 hr. 50 μL 3-(4,5-dimethylthiazol-2-yl)-2,5-diphenyltetrazolium bromide (MTT; Sigma M2128) was added to each well, and cells were incubated at 37 °C for 4 hr. Media was removed and cells were lysed with developing solution (0.04 M HCl in isopropanol). Plates were read at 550 nm.
(also on this page, place not known: 110A549 Cell Proliferation (% DMSO Control) 37°C)

SMILES strings stand for the structures.

With `C=C(c1ccc(C(=O)O)cc1)c1cc2c(cc1C)C(C)(C)CCC2(C)C` [Bexarotene], the IC50 with iNOS came out at 143 ± 19 nM. For the same compound, the fold induction at 0.3 µM in the series with SREBP was above 2. In series [1], this compound returned a concentration at 12 weeks of 81.2 ± 14.9 nM. In series [2], the Cholesterol in plasma is 1.99 ± 0.1ǂ µg/µL and the Triglycerides in plasma is on record as 2.21 ± 0.16ǂ nmol/µL. In series [2] (listed as bexarotene), this compound returned a Cholesterol in plasma of 1.99 ± 0.1 µg/µL and a Triglycerides in plasma of 2.21 ± 0.16 nmol/µL. Further, in the series on A549 lung cancer cells, the “Growth / proliferation of A549 lung cancer cells” value was “do not inhibit proliferation”.

For orientation: IC50 means the midpoint of a concentration-inhibition curve.

(Values after PMC7746742, “The novel rexinoid MSU-42011 is effective for the treatment of preclinical Kras-driven lung cancer” (Scientific Reports, 2020).)
